Test results from US20020028836A1, “Potassium channel openers” (priority 2000, published 2002).
Read-outs that look alike come from different tables or passages of the source.

Legend:
[1] = system: tissue strips obtained from Landrace pig bladders; experiment: Functional potassium channel opening activity in isolated bladder strips (field-stimulated twitch); settings: for Index: ED50 for P1075 divided by ED50 for the test agonist in a given tissue, averaged; for EC50: amount of agent necessary to cause 50% of the agent's maximal response, read-out: ED50 (the source's name); for Emax / Efficacy (% P1075): maximal efficacy relative to P1075, field stimulation 0.05 Hz, 0.5 ms, 20 volts
Procedure, shortened: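 Mucosa-free female Landrace pig bladder strips in Krebs Ringer bicarbonate (pH 7.4, 37° C., 0.004 mM propranolol), 1.0 g preload, field-stimulated at 0.05 Hz, 0.5 ms, 20 V for twitch. Cumulative concentration-response curves; maximal efficacy as % of P1075, ED50 fitted, potency index = P1075 ED50/test ED50 per tissue, averaged.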

[2] = system: bladder contractions in male CD rats; experiment: In vivo bladder efficacy protocol (isovolumetric contractions model); design: species or system rat; settings: iv, cumulative doses; dose reducing area under the curve of bladder contractions by 30% relative to control; urethane-anesthetized rats
Description: The utility of compounds of the present invention for the treatment of urinary incontinence, bladder overactivity, and bladder instability is illustrated by the ability of compounds of the present invention to inhibit bladder contractions in vivo. The following method is illustrative of the in vivo bladder efficacy of compounds of the present invention.
Male CD rats (400-450 g) were anesthetized with urethane (0.6 g/kg ip+0.6 g/kg sc). The left femoral vein was cannulated with polyethylene (PE-50) tubing for the administration of test compound. A third polyethylene catheter (PE-60) was inserted 3-4 mm into the apex of the bladder dome and secured using a 5-0 silk purse string suture. The bladder was emptied via this catheter and additionally by applying slight manual pressure on the lower abdomen. The urinary catheter was connected using a Y-tube connector to both a pressure transducer and a syringe pump. The urethra was then ligated using 4-0 silk suture and the bladder was slowly filled using a constant infusion of room temperature saline at the rate of 0.1 mL/min until spontaneous rhythmic contractions were evident (1.0-1.3 mL). After the contractions stabilized to a consistent pattern, bladder pressure was monitored for 20 minutes before and after a dose of the vehicle (equal parts of β-cyclodextrin stock solution (100 g β-cyclodextrin dissolved in 200 mL) and sterile water) alone. Then three doses of a test compound were administered cumulatively intravenous (iv) at 20 minute intervals. Each dosing solution (1 mL/kg) was warmed to body temperature before dosing and was infused over 3 minutes to minimize dosing artifacts on the bladder pressure trace. Data were averaged over the last 10 minutes of each period and presented as percent change from control. Area under the curve of the bladder contractions was determined from the respective waveforms using a Modular Instruments, Inc. computerized data acquisition system and averaged over the last ten minutes of each twenty minute period. The doses required to reduce the area under the curve of the bladder contractions by 30% (AUC ED30%) relative to control were estimated using a customized Excel spreadsheet.

[3] = system: primary cultured guinea-pig urinary bladder (GPB) cells; experiment: Membrane hyperpolarization (MHP) assay, DiBAC(4)3 / FLIPR; assay type: cell-based; settings: for EC50: concentration that elicits 50% of the maximal response for the test sample
Procedure, shortened: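 Primary smooth-muscle cells from male guinea-pig bladder, grown to confluence, loaded 30 min at 37° C with 5 μM DiBAC(4)3 in HEPES buffer pH 7.4. Fluorescence drop on FLIPR followed 25 min after compound; steady-state hyperpolarization normalized to 10 μM P1075 (100%), EC50 from four-parameter fit of five concentrations.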

[4] = Cavia porcellus, maximal steady-state hyperpolarization, normalized to response with 10 μM P1075 (100%)

| Compound | EC50 ([1]; Sus scrofa) | EC50 [3] | EC50 [1] | EC50 ([3]; Cavia porcellus) | Index [1] | Emax ([1]; Sus scrofa) | AUC EC30 [2] | Emax [3, 4] | Efficacy (% P1075) [1] | Maximal Response (% P1075) ([3]; maximal steady-state hyperpolarization, normalized to response with 10 μM P1075 (100%)) |
| --- | --- | --- | --- | --- | --- | --- | --- | --- | --- | --- |
| CC(C)(C)CC(NC(=O)c1ccc(Cl)cc1)NC(=N[N+](=O)[O-])Nc1cccnc1 (single isomer, unassigned; (-)) [Example 126, (−) 4-chloro-N-(1-{[(nitroimino)(3-pyridinylamino)methyl]amino}-3,3-dimethylbutyl)benzamide] |  |  | 3800 nM |  | 0.096 |  | 13.5 µmol/kg |  | 94 % P1075 |  |
| Cc1ccc(C(=O)NC(NC(=NC#N)Nc2ccccc2)C(Cl)(Cl)Cl)cc1 (stereo not drawn) [Example 46, N-(1-{[anilino(cyanoimino)methyl]amino}-2,2,2-trichloroethyl)-4-methylbenzamide] | 5000 nM |  |  | 40 nM | 0.015 | 84% | 0.70 µmol/kg | 105% |  |  |
| C=CCC(C)(C)C(NC(=O)c1ccc(Cl)cc1)NC(=NC#N)Nc1cccnc1 (single isomer, unassigned; (+)) [Example 91, (+) 4-chloro-N-(1-{[(cyanoimino)(3-pyridinylamino)methyl]amino}-2,2-dimethyl-4-pentenyl)benzamide] |  | 2900 nM | 830 nM |  | 0.360 |  | >10 µmol/kg |  | 46 % P1075 | 68 % P1075 |
| CC(C)(C)C(NC(=O)c1ccc(Cl)cc1)NC(=NC#N)Nc1cccnc1 (stereo not drawn) [Example 52, 4-chloro-N-(1-{[(cyanoimino)(3-pyridinylamino)methyl]amino}-2,2-dimethylpropyl)benzamide] | 19000 nM |  |  | 270 nM | 0.012 | 72% | 0.78 µmol/kg | 72% |  |  |
| CC(Cl)(Cl)C(NC(=O)c1ccc(Cl)cc1)NC(=NC#N)Nc1ccc(Cl)nc1 (stereo not drawn) [Example 160, 4-chloro-N-(2,2-dichloro-1-{[[(6-chloro-3-pyridinyl)amino](cyanoimino)methyl]amino}propyl)benzamide] |  |  | 690 nM |  | 0.221 | 98% | 1.7 µmol/kg |  |  |  |

Second part, led by results:

| EC50 ([1]; Sus scrofa) | EC50 [3] | EC50 [1] | EC50 ([3]; Cavia porcellus) | Compound | Index [1] | Emax ([1]; Sus scrofa) | AUC EC30 [2] | Emax [3, 4] | Efficacy (% P1075) [1] | Maximal Response (% P1075) ([3]; maximal steady-state hyperpolarization, normalized to response with 10 μM P1075 (100%)) |
| --- | --- | --- | --- | --- | --- | --- | --- | --- | --- | --- |
| 4900 nM |  |  |  | CC(Cl)(Cl)C(NC(=O)c1cccc(Cl)c1)NC(=NC#N)Nc1ccc(Cl)nc1 (stereo not drawn) [Example 153, 3-chloro-N-(2,2-dichloro-1-{[[(6-chloro-3-pyridinyl)amino](cyanoimino)methyl]amino}propyl)benzamide] | 0.014 | 93% | 1 µmol/kg |  |  |  |
| 17000 nM | 570 nM |  |  | Cc1ccc(C(=O)NC(NC(=NC#N)Nc2cccnc2)C(C)(C)C)cc1 (stereo not drawn) [Example 51, N-(1-{[(cyanoimino)(3-pyridinylamino)methyl]amino}-2,2-dimethylpropyl)-4-methylbenzamide] | 0.006 |  | 0.28 µmol/kg | 88% | 100 % P1075 |  |
